Measured values reported in patent US5079358A, “6H-pyrazolo-[4,5,1-d,e]acridin-6-one derivatives having anit-tumor activity” (Kyowa Hakko Kogyo Co., Ltd., priority 1988, dated 1992).
In brackets after ≈: the same amount, converted by molar mass.

Legend:
P388 ascites tumor = assay: Effect on P388 ascites tumor (increased life span); assay type: in vivo; conditions: P388, ip, intraperitoneal, 24 hours after implantation, male CDF1 mouse
Experimental: Effect on P388 ascites tumor:
P388 tumor cells (10^6 cells) were implanted intraperitoneally into a DBA/2 mouse and the cells were collected from the ascitic fluid of the animal 7 days after the implantation. The cells were ashed once with sterilized physiological saline solution and then suspended in a sterilized physiological saline solution to prepare a cell suspension containing 5×10^6 cells/ml. The suspension (0.2 ml) was intraperitoneally inoculated into a male CDF1 mouse aged 6 weeks. A test compound was dissolved in physiological saline solution and intraperitoneally administered to the animal 24 hours after implantation of the tumor cells. One test group comprised 5 mice. The mean survival time (days) of a test group which received a test compound at a specified concentration was calculated as T from survival days of animals in the group. ON the other hand, the mean survival time (days) of the non-administered group (C) was obtained in the same manner, and the increased life span (ILS %) was calculated as [(T-C)/C]×100 (%).

[1] = Acute toxicity (LD50), single intravenous administration to male ddy mice; conditions: mouse, in vivo, 14 days observation, Probit's method
Experimental: A test compound was administered intravenously once to male ddy mice. One test group comprised ten mice. […] LD50 was calculated from the death rate of each group in accordance with Probit's method.

[2] = test system: human cancer cells (HeLaS3); assay: Inhibitory effect on growth of human cancer cells (HeLaS3); assay type: cell-based; conditions: Homo sapiens, HeLa S3, 72 hours at 37° C., Neutral Red staining, 550 nm, read-out: IC50
Experimental: Inhibitory effect on growth of human cancer cells (HeLaS3):
HeLaS, cells were suspended in a medium comprising MEM medium (Nissui Pharmaceutical Co., Ltd.) and 2 mM glutamine (hereinafter referred to as Medium A) to a concentration of 3×10^4 cells/ml. The cell suspension thus prepared was put into wells of a 96-well microtiter plate in an amount of 0.1 ml/well. The cells on the plate were incubated in a CO2 -incubater at 37° C. for 20 hours, and 0.05 ml of a sample containing a test compound and appropriately diluted with Medium A was added to each well. The cells were further incubated in the CO2 -incubater at 37° C. for 72 hours. After the culture supernatant was removed, a medium comprising Medium A and 0.02% Neutral Red was added to the residue in an amount of 0.1 ml/well, followed by incubation at 37° C. for one hour in the CO2 -incubater, whereby the cells were stained. The culture supernatant was removed and the residue was washed once with physiological saline solution. The pigment was extracted with 0.001 N-HCl/30%-ethanol, and the absorbance was determined at 550 nm with a microplate reader. The absorbance determined for intact cells was compared with that for the cells treated with the test compound of a known concentration, and the concentration of the test compound for inhibiting 50% growth of the cells (IC50) was calculated.

Compound | IC50 [2] [ng/mL] | LD50 at 336 h [1] [mg/kg] | ILS at 25 mg/kg (P388 ascites tumor) [%] | other results
NCCNCc1nn2c3cccc(O)c3c(=O)c3c(NCCN)ccc1c32 [Compound 28, 5-(2-Aminoethyl)amino-2-(2-aminoethyl)aminomethyl-7-hydroxy-6H-pyrazolo[4,5,1-d,e]acridin-6-one] | – | 15.7 | – | ILS at 12.5 mg/kg (P388 ascites tumor; dose 12.5 mg/kg): > 154%
CN(C)CCNc1ccc2c(CN(CCO)CCO)nn3c4cccc(O)c4c(=O)c1c23 [Compound 51, 2-Bis(2-hydroxyethyl)aminomethyl-5-(2-dimethylaminoethyl)amino-7-hydroxy-6H-pyrazolo[4,5,1-d,e]acridin-6-one] | – | 15.7 | > 186 | –
NCCNc1ccc2c(CN(CCO)CCO)nn3c4cccc(O)c4c(=O)c1c23 [Compound 53, 5-(2-Aminoethyl)amino-2-bis(2-hydroxyethyl)aminomethyl-7-hydroxy-6H-pyrazolo[4,5,1-d,e]acridin-6-one] | – | 25 | > 100 | –

Continued, in another order:

IC50 [2] [ng/mL] | Compound | LD50 at 336 h [1] [mg/kg] | ILS at 25 mg/kg (P388 ascites tumor) [%] | other results
3 (≈ 7.31 nM) | NCCNCc1nn2c3cccc(O)c3c(=O)c3c(NCCNCCO)ccc1c32 [Compound 46, 2-(2-Aminoethyl)aminomethyl-7-hydroxy-5-[2-(2-hydroxyethylamino)ethyl]amino-6H-pyrazolo[4,5,1-d,e]acridin-6-one] | – | > 156 | –
2.6 (≈ 6.35 nM) | NCCNCCNc1ccc2c(CNCCN)nn3c4cccc(O)c4c(=O)c1c23 [Compound 48, 5-[2-(2-Aminoethylamino)ethyl]amino-2-(2-aminoethyl)aminomethyl-7-hydroxy-6H-pyrazolo[4,5,1-d,e]acridin-6-one] | – | – | ILS at 50 mg/kg (P388 ascites tumor; dose 50 mg/kg): > 200%
260 (≈ 513 nM) | O=c1c2c(O)cccc2n2nc(CNCCN3CCOCC3)c3ccc(NCCN4CCOCC4)c1c32 [Compound 56, 7-Hydroxy-5-(2-morpholinoethyl)amino-2-(2-morpholinoethyl)aminomethyl-6H-pyrazolo[4,5,1-d,e]acridin-6-one] | – | – | ILS at 100 mg/kg (P388 ascites tumor; dose 100 mg/kg): 121%
